# Assay results: patent US20160356723A1, “Light-Up Probes Based On Fluorogens With Aggregation Induced Emission Characteristics For Cellular Imaging And Drug Screening” (NATIONAL UNIVERSITY OF SINGAPORE, priority 2014, published 2016)
# Assays:
# [1] = target: T1, recombinant human caspase-3 (Homo sapiens, UniProt P42574); test: Enzymatic assay: fluorescence light-up on DEVD cleavage by caspase-3; type: biochemical
# T1 construct: purchased R&D Systems
# T1 sequence (P42574 29-175 limits assumed): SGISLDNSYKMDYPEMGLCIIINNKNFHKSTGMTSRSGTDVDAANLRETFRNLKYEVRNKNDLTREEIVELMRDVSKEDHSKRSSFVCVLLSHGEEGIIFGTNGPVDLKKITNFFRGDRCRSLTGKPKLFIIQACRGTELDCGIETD
# T1 sequence (P42574 176-277 limits assumed): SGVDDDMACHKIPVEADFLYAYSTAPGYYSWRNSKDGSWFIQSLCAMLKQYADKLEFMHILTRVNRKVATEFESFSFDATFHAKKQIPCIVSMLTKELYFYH
# Experimental: DMSO stock solutions of TPS-DEVD-Pt-cRGD were diluted with a mixture of DMSO and PIPES (v/v=1/199) to 10 μM. Next, each probe was incubated with ascorbic acid or caspase-3 at room temperature and the change of fluorescence intensity was measured. The PL spectra were collected from 420 to 650 nm under an excitation wavelength at 365 nm.
# To study the enzymatic response of TPS-DEVD-COOH, we performed in vitro enzymatic assays with recombinant human caspase-3. Mixtures of the ascorbic acid pretreated prodrug (10 μM) and caspases-3 (200 pM) were prepared and incubated in PIPES buffer. After 1 h incubation, the PL spectra were measured in the range from 425 to 650 nm.
# The fluorescence change of the TPS-DEVD-Pt-cRGD solution (10 μM) upon addition of ascorbic acid and caspase-3 enzyme was also monitored over time in a mixture of DMSO/PIPEs (v/v=1/199) buffer. […] We further studied the effect of caspase-3 concentration on the solution emission.
# MDA-MB-231 cells = test: MTT cytotoxicity, MDA-MB-231; type: cell-based; conditions: different concentrations, 72 h
# Source text: (§1) We next studied the cytotoxicity profile of the prodrug to MDA-MB-231 and MCF-7 cells by a MTT assay.
# MCF-7 cells [2] = test: MTT cytotoxicity, MCF-7; type: cell-based; conditions: 72 h
# Experimental: 3-(4,5-Dimethythiazol-2-yl)-2,5-diphenyltetrazolium bromide (MTT) assays were used to assess the metabolic activity of U87-MG and MCF-7 cancer cells. The cells were seeded in 96-well plates (Costar, Ill., USA) at an intensity of 4×10^4 cells mL^−1. After 24 h incubation, the medium was replaced by the probe suspension at different concentration of the prodrug and incubated at 37° C. After the designated time intervals, the wells were washed twice with 1×PBS buffer, and 100 μL of freshly prepared MTT (0.5 mg mL^−1) solution in culture medium was added into each well. The MTT medium solution was carefully removed after 3 h incubation in the incubator at 37° C. DMSO (100 μL) was then added into each well and the plate was gently shaken to dissolve all the precipitates formed. The absorbance of MTT at 570 nm was monitored by the microplate reader (Genios Tecan). Cell viability was expressed by the ratio of absorbance of the cells incubated with probe suspension to that of the cells incubated with culture medium only.
# We next compared the relationship between the apoptosis induced fluorescence intensity change in cells and the cytotoxicity profile of the prodrug using both U87-MG and MCF-7 cells as an example. The fluorescence intensities at 480 nm are monitored upon excitation at 365 nm after incubation the cells for 6 h. The cytotoxicity of the cells was evaluated by a standard MTT method after the incubation for 72 h. In this experiment, we studied this effect using both U87-MG and MCF-7 cells. […] Also, we can find that higher cell viability of the cells will show lower fluorescence intensity which means low degrees of cell apoptosis. For example, when both cells are treated with 5 μM TPS-DEVD-Pt-cRGD, the cell viability is only 31% for U87-MG cells after 72 h incubation, while in sharp contrast, the cell viability is 92% for MCF-7 cells at the same conditions.
# as §1
# [3] = system: lysozyme, pepsin, bovine serum albumin (BSA) and trypsin; test: Selectivity of fluorescence response against other proteins; type: biochemical; conditions: 10 μM ascorbic acid pretreated probe, identical conditions as caspase-3
# Experimental: (§2) To study the selectivity of the prodrug, we incubated ascorbic acid pretreated TPS-DEVD-Pt-cRGD (10 μM) with several proteins, including lysozyme, pepsin, bovine serum albumin (BSA) and trypsin under identical conditions. […] As there are many different kinds of proteins or enzymes inside the cells, we further obtained the cellular lysate of normal and apoptotic U87-MG cells, which were pretreated with commonly used cell apoptosis inducer staurosporine (STS, 2 μM) to activate the caspase-3 enzyme in the cells. The cell lysates were directly incubated with TPS-DEVD-Pt-cRGD (5 μM) and the fluorescence intensity at 485 nm was monitored over time.
# [4] = system: apoptotic U87-MG cell lysate; test: Fluorescence in apoptotic cell lysate (STS pretreated); type: biochemical, human; conditions: 5 μM probe, lysate of cells pretreated with STS 2 μM
# Experimental: as §2
# MCF-7 cells [5] = test: Confocal imaging of drug-induced apoptosis, MCF-7; type: cell-based; conditions: 5 μM probe, 6 h incubation, low integrin expression
# Experimental: (§3) U87-MG, MCF-7 and 293T cells were cultured in the chambers (LAB-TEK, Chambered Coverglass System) at 37° C. After 80% confluence, the culture medium was removed and washed twice with PBS buffer. The probe in DMSO stock solution was then added to the chamber to reach a final concentration of 5 μM. In some experiments, the cells were pre-incubated with media containing cRGD (50 μM) or inhibitor (5 μM) prior to prodrug incubation. After incubation the prodrug at 37° C. for 2 h, the medium was replaced with fresh medium, after that the cells were washed twice with ice-cold PBS and the cell nucleus was living stained with DRAQ5 (Biostatus) following the standard protocol of the manufacturer. […] The images were analyzed by Image J 1.43 x program (developed by NIH, http://rsbweb.nih.gov/ij/).
# (§4) To explore the capability of using TPS-DEVD-Pt-cRGD as a targeted drug delivery system and a drug induced apoptosis imaging probe in cancer cells. […] After 2 h of incubation, the cells were treated with cisplatin or staurosporine which both can activate the cell apoptosis and monitored with confocal microscopy. […] As the incubation time elapses, the fluorescence of U87-MG increases gradually with the cellular apoptotic progress, which reaches a maximum at 6 h. […]
# 293T cells = test: Confocal imaging of drug-induced apoptosis, 293T; type: cell-based; conditions: 5 μM probe, 6 h incubation, low integrin expression
# Experimental: as §3, §4
# [6] = system: normal U87-MG cell lysate; test: Fluorescence in normal cell lysate; type: biochemical, human; conditions: 5 μM probe, lysate of normal cells
# Experimental: as §2
# [7] = Effect of ionic strength (NaCl) on emission; type: physicochemical; conditions: NaCl 0 to 960 mM
# Source text: We next studied the optical properties of our prodrug. The UV-vis absorption spectra of TPS-CH2N3 in THF and TPS-DEVD-Pt-cRGD in DMSO/PIPES (v/v=1/199) buffer were obtained. Both have similar absorption profiles with an obvious absorbance in the 320-440 nm range with a little blue shift after the modification of the AIE fluorogen. It is known that AIE fluorogen is non-fluorescent in good solvents but emits intensely in solid or as aggregates in poor solvents. […] As biosensing is often conducted in buffers, it is important to study the effect of ionic strength on the emission behavior of the prodrug. The experiments were performed with addition of sodium chloride into an aqueous solution of TPS-DEVD-Pt-cRGD (10 μM). […] TPS-DEVD-Pt-cRGD and its reduction product maintain an “off” state in the complex environment and thus have great potential to serve as a specific light-up apoptosis sensor for drug effect study with minimum background interference.
# The photoluminescence (PL) spectra of TPE-CH2NH2 and TPE-SS-D5-cRGD in DMSO and phosphate buffered saline (PBS, pH=7.4) mixtures (v/v=1/199) are shown in FIG. 13A. […] [12] The TPE-SS-D5-cRGD probe is almost non-fluorescent in the same medium (Φ=0.001), due to the easy intramolecular rotations of the TPE phenyl rings in aqueous media. […]
# U87-MG cells = test: Confocal imaging of drug-induced apoptosis, U87-MG; type: cell-based, human
# Experimental: as §3, §4
# Solubility in water = type: physicochemical; conditions: DMSO/PIPEs v/v=1/199
# ALP = ALP detection in solution; type: biochemical; conditions: emission maximum changes from 520 nm to 640 nm
# Source text: The emission maximum of the solution changes from 520 nm to 640 nm in the presence of ALP.
compound,measurement,setting,value
"COC[C@@H]1CCCN1S(=O)(=O)c1ccc2c(c1)C(=O)C(=O)N2 [5-[(S)-(+)-2-(methoxymethyl)pyrrolidino]sulfonylisatin, reference compound]",effect of inhibitor pretreatment on caspase-3 induced probe fluorescence,"[1]; ascorbic acid pretreated TPS-DEVD-Pt-cRGD 10 μM, caspase-3 200 pM, inhibitor 10 μM",most of the fluorescence is readily competed away
N=C(N)NCCC[C@@H]1NC(=O)[C@H](CCCCNC(=O)[C@H](CC(=O)O)NC(=O)[C@H](CC(=O)O)NC(=O)[C@H](CC(=O)O)NC(=O)[C@H](CC(=O)O)NC(=O)[C@H](CC(=O)O)NC(=O)CCCCCCC(=O)NCCCC[n+]2ccc(/C=C/c3ccc(C(=C(c4ccccc4)c4ccccc4)c4ccccc4)cc3)cc2)NC(=O)[C@@H](Cc2ccccc2)NC(=O)[C@H](CC(=O)O)NC(=O)CNC1=O [PyTPE-C6-D5-cRGD],cytotoxicity,MDA-MB-231 cells,do not show significant cytotoxicity
same,cytotoxicity,MCF-7 cells [2],do not show significant cytotoxicity
N=C(N)NCCC[C@@H]1NC(=O)[C@H](CCCCNC(=O)[C@H](CC(=O)O)NC(=O)[C@H](CC(=O)O)NC(=O)[C@H](CC(=O)O)NC(=O)[C@H](CC(=O)O)NC(=O)[C@H](CC(=O)O)NC(=O)CCC(=O)[O][Pt-2]([NH3+])([NH3+])([Cl])([Cl])[O]C(=O)CCC(=O)NCCCC[n+]2ccc(/C=C/c3ccc(C(=C(c4ccccc4)c4ccccc4)c4ccccc4)cc3)cc2)NC(=O)[C@@H](Cc2ccccc2)NC(=O)[C@H](CC(=O)O)NC(=O)CNC1=O [PyTPE-Pt-D5-cRGD],cytotoxicity,MDA-MB-231 cells,much more obvious
same,cytotoxicity,MCF-7 cells [2],minimum toxicity
[NH3+][Pt-2]([NH3+])([Cl])([Cl])([O]C(=O)CCC(=O)NCCCC[n+]1ccc(/C=C/c2ccc(C(=C(c3ccccc3)c3ccccc3)c3ccccc3)cc2)cc1)[O]C(=O)CCC(=O)N[C@@H](CC(=O)O)C(=O)N[C@@H](CC(=O)O)C(=O)N[C@@H](CC(=O)O)C(=O)N[C@@H](CC(=O)O)C(=O)N[C@@H](CC(=O)O)C(=O)O [PyTPE-Pt-D5],cytotoxicity,MDA-MB-231 cells,do not show significant cytotoxicity
same,cytotoxicity,MCF-7 cells [2],do not show significant cytotoxicity
CC(C)[C@H](NC(=O)[C@H](CCC(=O)O)NC(=O)[C@H](CC(=O)O)NC(=O)CCC(=O)[O][Pt-2]([NH3+])([NH3+])([Cl])([Cl])[O]C(=O)CCC(=O)NCCCC[C@@H]1NC(=O)[C@@H](Cc2ccccc2)NC(=O)[C@H](CC(=O)O)NC(=O)CNC(=O)[C@H](CCCNC(=N)N)NC1=O)C(=O)N[C@@H](CC(=O)O)C(=O)N[C@@H](Cc1cn(Cc2ccc(C3=C(c4ccccc4)C(c4ccccc4)=C(c4ccccc4)[Si]3(C)C)cc2)nn1)C(N)=O [TPS-DEVD-Pt-cRGD],fluorescence increase over intrinsic emission with caspase-3,"[1]; 10 μM probe pretreated with ascorbic acid, DMSO/PIPES v/v=1/199, PL at 485 nm, 60 min",28 fold
same,time to fluorescence plateau after caspase-3 addition,"[1]; 10 μM probe, ascorbic acid and caspase-3, DMSO/PIPES v/v=1/199",60 min
same,detection limit for caspase-3,"[1]; three times sigma method, 10 μM probe, 1 h",1 pM
same,fluorescence intensity with other proteins,[3],remain low
same,fluorescence intensity at 485 nm over time,[4],increases quickly
same,cell fluorescence,MCF-7 cells [5],weak fluorescence signal
same,cell fluorescence,293T cells,weak fluorescence signal
same,fluorescence intensity at 485 nm (stability to cellular proteins),[6],minimum change
same,change of fluorescence with NaCl,[7],Almost no change
same,incubation time at which cell fluorescence reaches maximum,"U87-MG cells; 5 μM probe, real-time imaging",6 h
same,cell fluorescence after pretreatment with free cRGD or/and caspase-3 inhibitor,U87-MG cells; cRGD 50 μM or inhibitor 5 μM before probe,weak fluorescence
same,solubility in water,Solubility in water,good solubility in water
CN(C)c1ccc(/C=C/C(=O)c2ccccc2OP(=O)(O)O)cc1 [probe-1],optical response to ALP,ALP,distinct optical response
